Measurements published in patent US6632978B1, “Transgenic animals for studying regulation of genes” (Novartis AG, priority 1999, dated 2003).

B1: IFNg: IFNg, known not to induce E-selectin in vitro; control cytokine (protein, UniProt P01579 24-161, looked up)
Interferon gamma: QDPYVKEAENLKKYFNAGHSDVADNGTLFLGILKNWKEESDRKIMQSQIVSFYFKLFKNFKDDQSIQKSVETIKEDMNVKFFNSNKKKRDDFEKLTNYSVTDLNVQRKAIHELIQVMAELSPAAKTGKRKRSQMLFRG

Assays:
[1] = system: SEAP expression; assay: Effect of inhibitory compounds on TNF-induced SEAP expression; format: in vivo, mouse; conditions: for inhibition of marker enzyme (SEAP) expression: SEAP-1 animals (Example 2), 1 mg/kg i.v.; for modification of SEAP expression: SEAP-2 animals
Experimental: Test 5: Effect of Inhibitory Compounds on SEAP Expression.
Clasto-lactacystine-β-lactone, a commercially available proteasome inhibitor is dissolved in DMSO (10 μl/100 μg) and further diluted with 90 μl Peg300. This mixture is further diluted 1:10 in saline and injected i.v. to animals of Example 2 at a dose of 1 mg/kg. Ten to 15 min later TNF is administered i.p. to compound-treated or untreated animals of Example 2. Blood samples are taken from the animals at baseline, 6 hours and 24 hours and SEAP levels analyzed.

[2] = system: SEAP expression under the control of the E-selectin regulatory sequence; assay: LPS and cytokine induction of SEAP expression in heterozygous mice; format: in vivo, mouse; conditions: either line (SEAP-1, SEAP-2)
Experimental: Test 1: LPS and Cytokine Induction of SEAP Expression in Heterozygous Mice.
Heterozygous mice of Example 1 and Example 2 are injected with LPS (Sigma, Serotype 0:111B4 Cat. L4130) at a dose of 25 μg per mouse. Murine recombinant TNFα (R&D Systems, Cat No. 410-MT) is diluted in sterile saline and administered at a dose of 500 ng/mouse. Administration is intravenously, e.g., into the tail vein, subcutaneously or intraperitoneally.
Blood for analysis is taken from a superficial vein of the mouse into heparinized glass hematocrit capillaries. The blood is centrifuged in a table-top Eppendorff centrifuge at maximal speed for 5 min to prepare plasma.
A standard curve is created with human placental alkaline phosphatase (PAP) (Sigma Cat. P-3895). A stock solution of 2 mg/ml dissolved in buffer (Tris/HCl 50 mM pH 7.4; NaCl 150 mM; BSA 1%) is stored at −80° C. in aliquots. The standard curve is diluted in mouse plasma containing Heparin. The range of the standard curve is between 0.5 and 50000 ng/mL PAP.
For the enzyme assay the Tropix Kit (Tropix, Cat. No BP300) is used.
The results are plotted in FIGS. 3 and 4. […] The maximal levels of plasma SEAP are reached at 6 hours post-stimulation in animals of Example 2, the maximum reached in animals of Example 1 is not seen until 24 hours post stimulation. SEAP-2 mice express about 1000-fold more marker enzyme than SEAourP-1 animals. […]

Molecule	inhibition of marker enzyme (SEAP) expression ([1]; 6 hours after TNF)	inhibition of marker enzyme (SEAP) expression ([1]; 24 hours after TNF)	modification of SEAP expression ([1]; 6 hours after TNF)	modification of SEAP expression ([1]; 24 hours after TNF)	effect on SEAP induction [2]
CC(C)[C@H](O)[C@@]12NC(=O)[C@H](C)[C@@H]1OC2=O [clasto-lactacystine-β-lactone, Clasto-lactacystine-β-lactone]	significant inhibition	no effect	does not modify	does not modify	–
B1	–	–	–	–	no effect
